Assay results taken from patent publication US20230321012A1 (priority 2021, published 2023).
Several values for one entry are separate records, joined by “and”; a condition that tells them apart may be missing. Equal entries are not always repeated.

How the values were obtained:
spermine = assay: MALDI-FTICR imaging quantitation of PD marker spermine in whole-body sections of Th-MYCN mice; assay type: in vivo, mouse; conditions: for Quantitation of spermine in the whole-body section: Th-MYCN mice, one value per animal; for spermine in lung: group average; for spermine level in tumor, comparison of groups: mouse, in vivo; for Spermine concentration in tumor, Value / Spermine concentration in tumor, Average: raw determination, 96 h; for Spermine concentration in tumor, Value: individual Th-MYCN mice; for Spermine concentration in tumor, Average: treatment group average; for spermine in eye: vehicle 17.6 μM
Protocol: (§1) The lower limit of detection based on the calibration curve using labeled spermidine was 0.80 μg/g, while for spermine it was 1.10 μg/g.

[1] = test system: polyamine transport in T cells (CD4+ and CD4- lymphocytes, whole human blood); assay: Ex vivo blood-based PD bioassay: C5 (fluorescent spermine) uptake into stimulated T cells by FACS; assay type: cell-based
Protocol: To evaluate the target engagement activity of AMXT 1501 after oral administration in human patients, an ex vivo PD assay assessing lymphocyte spermine uptake and inhibition of uptake by AMXT 1501 was developed. Briefly, uptake of a fluorescent-labeled spermine analog conjugate (Fl-Spm, Compound 5, C5, Annereau, J. P., et al., A fluorescent biomarker of the polyamine transport system to select patients with AML for F14512 treatment. Leuk Res. 2010 October; 34(10):1383-9) was assayed by fluorescence-activated cell sorting (FACS) analysis in CD4+ and CD4^− T cells in human blood samples stimulated with anti-CD3+ and anti-CD28+ antibodies.
Polyamine uptake in blood lymphocytes (CD4^+ or CD8^+ T cells) was measured at the same time points as the PK levels for AMXT 1501 were measured. Comparisons were made between uptake in the pre-treatment sample and samples taken over time following dosing.
Pharmacodynamic Bioassay. The purpose of this whole blood assay was to quantify the inhibition of polyamine transport in T cells in human subjects receiving AMXT 1501. Collected whole blood from subjects receiving AMXT 1501 was diluted with serum-free media and stimulated with anti-CD3 (T cell receptor engagement) and anti-CD28 (co-stimulatory signal) to drive T cell activation and proliferation for a total of three days. During the last 12-18 hours of culture, a fluorescently-labeled spermine analog (Fl-Spm, Compound 5, C5) was added to the in vitro culture to monitor polyamine uptake into cells. The functional activity (e.g., inhibitory effect) of AMXT 1501 on C5 uptake by T cells was then determined using flow cytometry by measuring the frequency and median fluorescence intensity (MFI) of C5 in T cells. Activation and proliferation of T cells is required for the uptake of C5; however, in the presence of high concentrations of AMXT 1501 in vitro, C5 uptake is inhibited despite active proliferation of T cells. Therefore, a whole blood sample spiked with high levels of AMXT 1501 prior to culture will be used as a positive control for each subject in this assay. […]

[2] = Clinical safety and tolerability, dose-limiting toxicities (NCT03536728); assay type: in vivo
Excerpt: Clinical Trial Outline. […] All solid tumor types are eligible for the trial. […] DFMO was delivered orally twice daily in gel capsules.
These DLTs involved vomiting, diarrhea and nausea, and inferred a potential dual drug targeting of the gastrointestinal (GI) tract in these patients. One patient experienced severe dehydration, requiring hospitalization. A similar observation was made in dogs in Aminex's 28-day toxicological testing. […] The clinical observations and the data obtained in dog studies, together, support the hypothesis that combined oral drug dosing levels and DFMO targeting of the GI tract are causing the intolerance.
In cohorts before Part 2, Cohort 4, 14 adults were treated at 1,200 mg or higher of AMXT 1501 daily, either once daily or BID, with no DLTs. A total of 18 patients were treated at 800 mg AMXT 1501 or higher daily with no DLTs. These patients included a couple of adult patients where Cmax values above 1,000 ng/mL AMXT 1501 plasma levels were observed, again with no DLTs observed.

spermidine = assay: MALDI-FTICR imaging quantitation of PD marker spermidine in whole-body sections of Th-MYCN mice; assay type: in vivo, mouse; conditions: for Quantitation of spermidine in the whole-body section: Th-MYCN mice, one value per animal; for spermidine level in tumor, comparison of groups: mouse, in vivo; for Spermidine concentration in tumor, Values / Spermidine concentration in tumor, Average: raw determination, 96 h; for Spermidine concentration in tumor, Values: individual Th-MYCN mice; for Spermidine concentration in tumor, Average: treatment group average; for spermidine in eye: vehicle 9.14 μM
Protocol: as §1

## CCCCCCCCCCCCCCCC(=O)NCCCC[C@@H](N)C(=O)NCCCNCCCCNCCCN [AMXT 1501, D-lys(palmitoyl)-spermine]
spermine; Eye
  Quantitation of spermine in the whole-body section: 4.19 µM and 5.03 µM
spermine
  spermine in lung: low
  spermine level in tumor, comparison of groups: lowest levels
  Spermine concentration in tumor, Value: BLOD
  Spermine concentration in tumor, Average: BLOD
  spermine in eye: around 5 μM
[1]; Homo sapiens, T-cell, read-out: ED50, inhibition of fluorescent-labeled spermine uptake
  EC50: ~75 nM
[1]; several Part 2 Cohort 3 patients, Day 7-8, oral AMXT 1501 dicaprate, preliminary
  ex vivo target engagement activity in patient whole blood: sustained AMXT 1501 target engagement activity
[1]; whole human blood, absence of DFMO
  concentration of maximal fluorescent-labeled spermine uptake inhibition: 250 nM
[2]; 14 adults at 1,200 mg or higher of AMXT 1501 daily, QD or BID, cohorts before Part 2 Cohort 4
  dose-limiting toxicities: no DLTs
[2]; 18 patients at 800 mg AMXT 1501 or higher daily
  dose-limiting toxicities: no DLTs
spermidine; Eye
  Quantitation of spermidine in the whole-body section: 3.21 µM
spermidine; Intestine contents
  Quantitation of spermidine in the whole-body section: 6.36 µM and 9.59 µM
spermidine; Stomach contents
  Quantitation of spermidine in the whole-body section: 2.05 µM and 0.00 µM
spermidine; Tumor
  Quantitation of spermidine in the whole-body section: 1.32 µM
spermidine; White fat
  Quantitation of spermidine in the whole-body section: 5.26 µM
spermidine
  spermidine level in tumor, comparison of groups: lowest levels
  Spermidine concentration in tumor, Values: BLOD and 1.32 μM
  Spermidine concentration in tumor, Average: 1.32 µM
  spermidine in eye: 3 µM

## NCCCC(N)(C(=O)O)C(F)F (stereo not drawn) [DFMO, difluoromethylornithine]
spermine; Eye
  Quantitation of spermine in the whole-body section: 16.03 µM and 8.07 µM
spermine; Intestine contents
  Quantitation of spermine in the whole-body section: 2.46 µM
spermine; Intestine wall
  Quantitation of spermine in the whole-body section: 3.44 µM
spermine; Kidney
  Quantitation of spermine in the whole-body section: 4.69 µM
spermine; Liver
  Quantitation of spermine in the whole-body section: 2.14 µM
spermine; Lung
  Quantitation of spermine in the whole-body section: 4.78 µM and 7.91 µM
spermine; Myocardium
  Quantitation of spermine in the whole-body section: BLOQ
spermine; Stomach contents
  Quantitation of spermine in the whole-body section: 0.00 µM
spermine; Stomach wall
  Quantitation of spermine in the whole-body section: BLOQ
spermine; Testis
  Quantitation of spermine in the whole-body section: 7.40 µM
spermine; Thymas
  Quantitation of spermine in the whole-body section: BLOQ
spermine; Tumor
  Quantitation of spermine in the whole-body section: 6.03 µM
spermine
  spermine in lung: 6.35 µM
  spermine level in tumor, comparison of groups: highest levels
  Spermine concentration in tumor, Value: BLOD and 6.03 μM
  Spermine concentration in tumor, Average: 6.03 µM
  spermine in eye: 12 µM
spermidine; Brain
  Quantitation of spermidine in the whole-body section: 1.86 µM
spermidine; Brown fat
  Quantitation of spermidine in the whole-body section: 3.80 µM
spermidine; Cardiac blood
  Quantitation of spermidine in the whole-body section: 0.00 µM
spermidine; Eye
  Quantitation of spermidine in the whole-body section: 6.11 µM and 5.24 µM
spermidine; Intestine contents
  Quantitation of spermidine in the whole-body section: 43.17 µM and 5.61 µM
spermidine; Intestine wall
  Quantitation of spermidine in the whole-body section: 4.56 µM
spermidine; Kidney
  Quantitation of spermidine in the whole-body section: 1.35 µM
spermidine; Liver
  Quantitation of spermidine in the whole-body section: 6.67 µM
spermidine; Lung
  Quantitation of spermidine in the whole-body section: 4.53 µM and 2.64 µM
spermidine; Stomach wall
  Quantitation of spermidine in the whole-body section: 1.13 µM
spermidine; Testis
  Quantitation of spermidine in the whole-body section: 1.97 µM
spermidine; Thymus
  Quantitation of spermidine in the whole-body section: 6.00 µM
spermidine; Tumor
  Quantitation of spermidine in the whole-body section: 5.39 µM
spermidine
  spermidine level in tumor, comparison of groups: highest levels
  Spermidine concentration in tumor, Values: BLOD and 5.39 μM
  Spermidine concentration in tumor, Average: 5.39 µM
  spermidine in eye: 6 µM
